PubChem BioAssay (NCI)
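Growth conditions: 96-well plates. Treatment: test compound, 48 hours, 5 concentrations. Analysis: linear interpolation between bracketing concentrations; unreached endpoints set to highest concentration. GI50 marks 50% less growth. TGI denotes the concentration required for complete inhibition of growth.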

Legend:
Experiment in all cases: inhibition of tumour cell growth, NCI panel, 48 h
U251 CNS = tested on: U251 CNS
M14 melanoma = tested on: M14 melanoma
HS 578T breast = tested on: HS 578T breast
TK-10 renal = tested on: TK-10 renal
MDA-MB-231 breast = tested on: MDA-MB-231 breast
DU-145 prostate = tested on: DU-145 prostate
NCI-H23 lung = tested on: NCI-H23 lung
NCI-H522 lung = tested on: NCI-H522 lung
NCI-H460 lung = tested on: NCI-H460 lung
HCT-116 colon = tested on: HCT-116 colon
OVCAR-4 ovarian = tested on: OVCAR-4 ovarian
HCT-15 colon = tested on: HCT-15 colon
CAKI-1 renal = tested on: CAKI-1 renal
SF-295 CNS = tested on: SF-295 CNS
OVCAR-3 ovarian = tested on: OVCAR-3 ovarian
OVCAR-8 ovarian = tested on: OVCAR-8 ovarian
COLO 205 colon = tested on: COLO 205 colon
MALME-3M melanoma = tested on: MALME-3M melanoma
SK-MEL-2 melanoma = tested on: SK-MEL-2 melanoma
HT29 colon = tested on: HT29 colon
SW-620 colon = tested on: SW-620 colon
UACC-62 melanoma = tested on: UACC-62 melanoma
HCC-2998 colon = tested on: HCC-2998 colon
RXF 393 renal = tested on: RXF 393 renal
HOP-92 NSCLC = tested on: HOP-92 NSCLC
SK-OV-3 ovarian = tested on: SK-OV-3 ovarian
SNB-19 CNS = tested on: SNB-19 CNS
T-47D breast = tested on: T-47D breast
SK-MEL-28 melanoma = tested on: SK-MEL-28 melanoma
NCI-H226 lung = tested on: NCI-H226 lung
SR leukemia = tested on: SR leukemia
PC-3 prostate = tested on: PC-3 prostate
OVCAR-5 ovarian = tested on: OVCAR-5 ovarian
K-562 leukemia = tested on: K-562 leukemia
SF-268 CNS = tested on: SF-268 CNS
MDA-MB-435 = tested on: MDA-MB-435
MOLT-4 leukemia = tested on: MOLT-4 leukemia
HL-60(TB) leukemia = tested on: HL-60(TB) leukemia
BT-549 breast = tested on: BT-549 breast
KM12 colon = tested on: KM12 colon
MCF7 breast = tested on: MCF7 breast
RPMI-8226 leukemia = tested on: RPMI-8226 leukemia
UO-31 renal = tested on: UO-31 renal
CCRF-CEM leukemia = tested on: CCRF-CEM leukemia
SN12C renal = tested on: SN12C renal
SK-MEL-5 melanoma = tested on: SK-MEL-5 melanoma
HOP-62 NSCLC = tested on: HOP-62 NSCLC
NCI/ADR-RES ovarian = tested on: NCI/ADR-RES ovarian
UACC-257 melanoma = tested on: UACC-257 melanoma
IGROV1 ovarian = tested on: IGROV1 ovarian
EKVX NSCLC = tested on: EKVX NSCLC
LOX IMVI melanoma = tested on: LOX IMVI melanoma
ACHN renal = tested on: ACHN renal
A549 NSCLC = tested on: A549 NSCLC
A498 renal = tested on: A498 renal
SF-539 CNS = tested on: SF-539 CNS
SNB-75 CNS = tested on: SNB-75 CNS
786-0 renal = tested on: 786-0 renal

Compound: COc1ccc2c(c1)c(/C=N/Nc1ccnc3cc(Cl)ccc13)cn2C
- GI50 (U251 CNS): 173 nM
- TGI (U251 CNS): 322 nM
- GI50 (M14 melanoma): 992 nM
- TGI (M14 melanoma): 2600 nM
- GI50 (HS 578T breast): 1810 nM
- TGI (HS 578T breast): 3.88 µM
- GI50 (TK-10 renal): 1240 nM
- TGI (TK-10 renal): 2780 nM
- GI50 (MDA-MB-231 breast): 203 nM
- TGI (MDA-MB-231 breast): 444 nM
- GI50 (DU-145 prostate): 192 nM
- TGI (DU-145 prostate): 349 nM
- GI50 (NCI-H23 lung): 214 nM
- TGI (NCI-H23 lung): 556 nM
- GI50 (NCI-H522 lung): 563 nM
- TGI (NCI-H522 lung): 1280 nM
- GI50 (NCI-H460 lung): 193 nM
- TGI (NCI-H460 lung): 357 nM
- GI50 (HCT-116 colon): 176 nM
- TGI (HCT-116 colon): 324 nM
- GI50 (OVCAR-4 ovarian): 681 nM
- TGI (OVCAR-4 ovarian): 1700 nM
- GI50 (HCT-15 colon): 200 nM
- TGI (HCT-15 colon): 410 nM
- GI50 (CAKI-1 renal): 1490 nM
- TGI (CAKI-1 renal): 2890 nM
- GI50 (SF-295 CNS): 1110 nM
- TGI (SF-295 CNS): 3.15 µM
- GI50 (OVCAR-3 ovarian): 1180 nM
- TGI (OVCAR-3 ovarian): 2440 nM
- GI50 (OVCAR-8 ovarian): 202 nM
- TGI (OVCAR-8 ovarian): 440 nM
- GI50 (COLO 205 colon): 578 nM
- TGI (COLO 205 colon): 1800 nM
- GI50 (MALME-3M melanoma): 1470 nM
- TGI (MALME-3M melanoma): 3.27 µM
- GI50 (SK-MEL-2 melanoma): 1700 nM
- TGI (SK-MEL-2 melanoma): 3.28 µM
- GI50 (HT29 colon): 176 nM
- TGI (HT29 colon): 325 nM
- GI50 (SW-620 colon): 185 nM
- TGI (SW-620 colon): 360 nM
- GI50 (UACC-62 melanoma): 1730 nM
- TGI (UACC-62 melanoma): 3.52 µM
- GI50 (HCC-2998 colon): 369 nM
- TGI (HCC-2998 colon): 1190 nM
- GI50 (RXF 393 renal): 1260 nM
- TGI (RXF 393 renal): 2900 nM
- GI50 (HOP-92 NSCLC): 823 nM
- TGI (HOP-92 NSCLC): 2490 nM
- GI50 (SK-OV-3 ovarian): 1570 nM
- TGI (SK-OV-3 ovarian): 3.14 µM
- GI50 (SNB-19 CNS): 648 nM
- TGI (SNB-19 CNS): 2090 nM
- GI50 (T-47D breast): 227 nM
- TGI (T-47D breast): 599 nM
- GI50 (SK-MEL-28 melanoma): 1840 nM
- TGI (SK-MEL-28 melanoma): 3.46 µM
- GI50 (NCI-H226 lung): 1820 nM
- TGI (NCI-H226 lung): 4.31 µM
- GI50 (SR leukemia): 143 nM
- TGI (SR leukemia): 521 nM
- GI50 (PC-3 prostate): 517 nM
- TGI (PC-3 prostate): 1290 nM
- GI50 (OVCAR-5 ovarian): 609 nM
- TGI (OVCAR-5 ovarian): 1190 nM
- GI50 (K-562 leukemia): 193 nM
- TGI (K-562 leukemia): 382 nM
- GI50 (SF-268 CNS): 1660 nM
- TGI (SF-268 CNS): 3.46 µM
- GI50 (MDA-MB-435): 186 nM
- TGI (MDA-MB-435): 354 nM
- GI50 (MOLT-4 leukemia): 215 nM
- TGI (MOLT-4 leukemia): 478 nM
- GI50 (HL-60(TB) leukemia): 231 nM
- TGI (HL-60(TB) leukemia): 533 nM
- GI50 (BT-549 breast): 1890 nM
- TGI (BT-549 breast): 3.54 µM
- GI50 (KM12 colon): 194 nM
- TGI (KM12 colon): 384 nM
- GI50 (MCF7 breast): 164 nM
- TGI (MCF7 breast): 327 nM
- GI50 (RPMI-8226 leukemia): 233 nM
- TGI (RPMI-8226 leukemia): 565 nM
- GI50 (UO-31 renal): 1390 nM
- TGI (UO-31 renal): 2850 nM
- GI50 (CCRF-CEM leukemia): 234 nM
- TGI (CCRF-CEM leukemia): 589 nM
- GI50 (SN12C renal): 439 nM
- TGI (SN12C renal): 961 nM
- GI50 (SK-MEL-5 melanoma): 1640 nM
- TGI (SK-MEL-5 melanoma): 3.18 µM
- GI50 (HOP-62 NSCLC): 1450 nM
- TGI (HOP-62 NSCLC): 3.3 µM
- GI50 (NCI/ADR-RES ovarian): 600 nM
- TGI (NCI/ADR-RES ovarian): 1480 nM
- GI50 (UACC-257 melanoma): 1780 nM
- TGI (UACC-257 melanoma): 3.66 µM
- GI50 (IGROV1 ovarian): 176 nM
- TGI (IGROV1 ovarian): 345 nM
- GI50 (EKVX NSCLC): 1510 nM
- TGI (EKVX NSCLC): 3.19 µM
- GI50 (LOX IMVI melanoma): 183 nM
- TGI (LOX IMVI melanoma): 352 nM
- GI50 (ACHN renal): 683 nM
- TGI (ACHN renal): 1560 nM
- GI50 (A549 NSCLC): 181 nM
- TGI (A549 NSCLC): 347 nM
- GI50 (A498 renal): 1830 nM
- TGI (A498 renal): 3.47 µM
- GI50 (SF-539 CNS): 612 nM
- TGI (SF-539 CNS): 1250 nM
- GI50 (SNB-75 CNS): 1320 nM
- TGI (SNB-75 CNS): 2800 nM
- GI50 (786-0 renal): 175 nM
- TGI (786-0 renal): 317 nM
